Assay results taken from US20230331675A1, “AROMATIC ETHYLENE COMPOUND AND PREPARATION METHOD THEREFOR, AND INTERMEDIATE, PHARMACEUTICAL COMPOSITION, AND APPLICATION THEREOF” (GUANGZHOU MAXINOVEL PHARMACEUTICALS CO., LTD., priority 2020, published 2023).

Target: PD-1/PD-L1 (Homo sapiens (Human), UniProt Q9NZQ7)
Assay: Homogeneous time-resolved fluorescence (HTRF) binding assay
Conditions: CisBio kit, read-out: IC50 of compounds binding to PD-1/PD-L1
Text: Effect embodiment 1: Homogenouse time-resolved fluorescence
Homogeneous time-resolved fluorescence (HTRF) binding assay was used to determine the binding ability of the compound of the present disclosure to PD-1/PD-L1.
The purchased kit (CisBio, #64CUS000C-1) contained reagents required for assays such as PD-1, PD-L1, anti-tag1-Eu, Anti-tag2-XL665, dilute buffer, and detection buffer.
1. The compound was formulated to 10 concentrations with a 3-fold gradient with 100% DMSO.
2. The DMSO solution of the compound was added to the dilute buffer, mixed thoroughly, then transferred to a 96-well plate.
3. PD-L1 was diluted with dilute buffer, then added to the above 96-well plate.
4. PD-1 was diluted with dilute buffer and added to the above 96-well plate, which was then incubated at room temperature for 30 minutes.
5. A portion of anti-tag1-Eu and a portion of anti-tag2-XL665 were added to the detection buffer, mixed thoroughly and transferred to the above 96-well plate.
6. The mixture in the above 96-well plate was incubated at room temperature for 1 to 24 hours.
7. HTRF values were read with Envision.

Sequence of PD-1/PD-L1 (Q9NZQ7 19-238): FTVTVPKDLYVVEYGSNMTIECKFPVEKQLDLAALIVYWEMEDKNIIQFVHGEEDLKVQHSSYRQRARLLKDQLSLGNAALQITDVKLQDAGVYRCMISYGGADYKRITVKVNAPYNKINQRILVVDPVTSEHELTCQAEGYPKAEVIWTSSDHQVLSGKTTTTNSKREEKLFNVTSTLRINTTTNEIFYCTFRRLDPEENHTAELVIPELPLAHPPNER

Compound	IC50 [nM]
COc1cc(/C(Br)=C/c2cccc(-c3ccccc3)c2C)c(C(F)(F)F)cc1CNCCO [Compound 66, (Z)-2-((4-(1-Bromo-2-(2-methyl-[1,1′-biphenyl]-3-yl)vinyl)-2-methoxy-5-trifluoromethylbenzyl)amino)-1-ethanol]	41.7
(S,E)-1-(2-((3-Iodobenzyloxy)-5-methyl-4-(2-(2-methyl-[1,1′-biphenyl]-3-yl)vinyl)benzyl)piperidine-2-carboxylic acid [Compound 75]	28.4
COc1cc(/C=C/c2cccc(-c3ccccc3)c2Cl)c(C(F)(F)F)cc1CN1CCCC[C@H]1C(=O)O [Compound 71, (S,E)-1-(4-(2-(2-Chloro-[1,1′-biphenyl]-3-yl)vinyl)-2-methoxy-5-trifluoromethylbenzyl)piperidine-2-carboxylic acid]	0.68
CS(=O)(=O)CCCOc1cc(/C=C/c2cccc(-c3ccccc3)c2C#N)c(CN2CCCC[C@H]2C(=O)O)cc1Cl [Compound 36]	> 10000
N#Cc1c(/C=C/c2cc(CO)c(CN3CCOC[C@H]3C(=O)O)cc2C(F)(F)F)cccc1-c1ccccc1 [Compound 21, (S,E)-4-(4-(2-(2-Cyano-[1,1′-biphenyl]-3-yl)vinyl)-2-hydroxymethyl-5-trifluoromethylbenzyl)morpholine-3-carboxylic acid]	57.6
Cc1cc(CN2CCCC[C@H]2C(=O)O)c(OCCCCF)cc1/C=C/c1cccc(-c2ccccc2)c1C [Compound 83, (S,E)-1-(2-(4-Fluorobutoxy)-5-methyl-4-(2-(2-methyl-[1,1′-biphenyl]-3-yl)vinyl)benzyl)piperidine-2-carboxylic acid]	6.99
Cc1cc(CN2CCCC[C@H]2C(=O)O)c(C)cc1/C=C/c1cccc(-c2ccccc2)c1C#N [Compound 10]	4.2
Cc1ccc(OCCCCC#N)c(CN2CCCC[C@H]2C(=O)O)c1/C=C/c1cccc(-c2ccccc2)c1C#N [Compound 45, (S,E)-1-(2-(2-(2-Cyano-[1,1′-biphenyl]-3-yl)vinyl)-6-(4-cyanobutoxy)-3-methylbenzyl)piperidine-2-carboxylic acid]	> 10000
N#CCOc1cc(/C=C/c2cccc(-c3ccccc3)c2C#N)c(CN2CCCC[C@H]2C(=O)O)cc1Cl [Compound 47, (S,E)-1-(5-Chloro-2-(2-(2-cyano-[1,1′-biphenyl]-3-yl)vinyl)-4-(cyanomethoxy)benzyl)piperidine-2-carboxylic acid]	> 10000
Cc1cc(CN[C@@](C)(CO)C(=O)O)c(C)cc1/C=C/c1cccc(-c2ccccc2)c1C#N [Compound 12, (S,E)-2-((4-(2-(2-Cyano-[1,1′-biphenyl]-3-yl)vinyl)-2,5-dimethylbenzyl)amino)-3-hydroxy-2-methylpropionic acid]	3.4
Cc1cc(CN2CCCC[C@H]2C(=O)O)c(OCCO)cc1/C=C/c1cccc(-c2ccccc2)c1C#N [Compound 26]	4.7
COc1cc(/C(Br)=C/c2cccc(-c3ccccc3)c2C)c(C(F)(F)F)cc1CN1CCCC[C@H]1C(=O)O [Compound 67, (S,Z)-1-(4-(1-Bromo-2-(2-methyl-[1,1′-biphenyl]-3-yl)vinyl)-2-methoxy-5-trifluoromethylbenzyl)piperidine-2-carboxylic acid]	12.8
COc1cc(/C=C/c2cccc(-c3ccccc3)c2CF)c(C(F)(F)F)cc1CN1CCCC[C@H]1C(=O)O [Compound 73, (S,E)-1-(4-(2-(2-Fluoromethyl-[1,1′-biphenyl]-3-yl)vinyl)-2-methoxy-5-trifluoromethylbenzyl)piperidine-2-carboxylic acid]	3.99
Cc1cc(CN2CCNC[C@H]2C(=O)O)c(OCCCCC#N)cc1/C=C/c1cccc(-c2ccccc2)c1C#N [Compound 18, (S,E)-1-(4-(2-(2-Cyano-[1,1′-biphenyl]-3-yl)vinyl)-2-(4-cyanobutoxy)-5-methylbenzyl)piperazine-2-carboxylic acid]	22.2
